Measurements as given in ChEMBL document CHEMBL5523770 (J Med Chem, 2024).

Tests used:
[1] = target: Nuclear receptor subfamily 4 group A member 2 (Homo sapiens, UniProt P43354); assay: Inverse agonist activity at Gal4-fused human […] Nurr1 LBD transfected in HEK293T cells assessed as suppression of Nurr1 activation incubated for 16 hrs by firefly/renilla based Dual-Glo luciferase assay; type: cell-based
[2] = target: T1, Nuclear receptor subfamily 1 group I member 2 (Homo sapiens, UniProt O75469); assay: Inverse agonist activity at human PXR transfected in HEK293T cells incubated for 16 hrs by firefly/renilla based Dual-Glo luciferase assay; type: cell-based
T1 sequence (O75469 whole entry): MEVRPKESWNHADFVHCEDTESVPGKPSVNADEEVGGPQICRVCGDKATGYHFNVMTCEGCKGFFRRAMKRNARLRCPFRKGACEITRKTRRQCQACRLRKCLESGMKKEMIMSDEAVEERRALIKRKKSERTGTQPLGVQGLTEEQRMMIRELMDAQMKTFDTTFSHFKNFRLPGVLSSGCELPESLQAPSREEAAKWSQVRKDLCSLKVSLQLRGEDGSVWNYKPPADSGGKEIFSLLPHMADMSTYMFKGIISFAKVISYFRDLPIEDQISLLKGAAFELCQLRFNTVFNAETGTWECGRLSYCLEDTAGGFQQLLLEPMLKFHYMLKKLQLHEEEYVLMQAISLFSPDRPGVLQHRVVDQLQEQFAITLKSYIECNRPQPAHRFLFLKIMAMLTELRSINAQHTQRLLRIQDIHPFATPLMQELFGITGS

[3] = target: Nuclear receptor subfamily 4 group A member 3 (Homo sapiens, UniProt Q92570); assay: Inverse agonist activity at human NOR-1 (393 to 626 residues) transfected in HEK293T cells incubated for 16 hrs by firefly/renilla based Dual-Glo luciferase assay; type: cell-based
Chain of Nuclear receptor subfamily 4 group A member 3 (Q92570 whole entry, the tested form may be a part): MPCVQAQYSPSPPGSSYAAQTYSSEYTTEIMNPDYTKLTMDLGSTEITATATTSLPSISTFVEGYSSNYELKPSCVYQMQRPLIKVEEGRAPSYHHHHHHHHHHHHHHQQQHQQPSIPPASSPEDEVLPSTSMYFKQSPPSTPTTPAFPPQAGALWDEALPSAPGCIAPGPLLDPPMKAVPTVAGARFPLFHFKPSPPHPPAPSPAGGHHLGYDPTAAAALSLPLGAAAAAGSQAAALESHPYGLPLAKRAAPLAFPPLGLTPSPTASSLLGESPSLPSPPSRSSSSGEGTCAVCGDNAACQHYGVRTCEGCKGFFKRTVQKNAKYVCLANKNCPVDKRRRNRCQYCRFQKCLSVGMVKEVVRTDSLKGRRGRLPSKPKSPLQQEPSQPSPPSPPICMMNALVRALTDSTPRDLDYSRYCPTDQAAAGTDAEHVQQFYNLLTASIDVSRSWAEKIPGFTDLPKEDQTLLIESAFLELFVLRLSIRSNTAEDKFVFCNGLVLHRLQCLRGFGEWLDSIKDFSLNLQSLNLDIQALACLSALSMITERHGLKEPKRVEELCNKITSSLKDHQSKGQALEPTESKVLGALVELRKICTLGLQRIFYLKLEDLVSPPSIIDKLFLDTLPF

[4] = target: T2, Nuclear receptor subfamily 1 group I member 3 (Homo sapiens, UniProt Q14994); assay: Inverse agonist activity at human CAR transfected in HEK293T cells incubated for 16 hrs by firefly/renilla based Dual-Glo luciferase assay; type: cell-based
T2 sequence (Q14994 whole entry): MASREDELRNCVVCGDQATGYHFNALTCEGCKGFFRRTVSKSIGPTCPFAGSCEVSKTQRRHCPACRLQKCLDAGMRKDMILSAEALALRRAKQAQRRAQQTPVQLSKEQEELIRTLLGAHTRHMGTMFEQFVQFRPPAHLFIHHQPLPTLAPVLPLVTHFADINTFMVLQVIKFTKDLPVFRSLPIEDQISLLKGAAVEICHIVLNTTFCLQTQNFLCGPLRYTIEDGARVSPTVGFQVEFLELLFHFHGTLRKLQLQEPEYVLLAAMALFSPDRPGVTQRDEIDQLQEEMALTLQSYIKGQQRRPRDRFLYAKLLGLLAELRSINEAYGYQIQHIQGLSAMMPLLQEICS

in vitro = settings: male, Sprague-Dawley, rat, liver microsomes

Chain of Nuclear receptor subfamily 4 group A member 2 (P43354 whole entry, the tested form may be a part): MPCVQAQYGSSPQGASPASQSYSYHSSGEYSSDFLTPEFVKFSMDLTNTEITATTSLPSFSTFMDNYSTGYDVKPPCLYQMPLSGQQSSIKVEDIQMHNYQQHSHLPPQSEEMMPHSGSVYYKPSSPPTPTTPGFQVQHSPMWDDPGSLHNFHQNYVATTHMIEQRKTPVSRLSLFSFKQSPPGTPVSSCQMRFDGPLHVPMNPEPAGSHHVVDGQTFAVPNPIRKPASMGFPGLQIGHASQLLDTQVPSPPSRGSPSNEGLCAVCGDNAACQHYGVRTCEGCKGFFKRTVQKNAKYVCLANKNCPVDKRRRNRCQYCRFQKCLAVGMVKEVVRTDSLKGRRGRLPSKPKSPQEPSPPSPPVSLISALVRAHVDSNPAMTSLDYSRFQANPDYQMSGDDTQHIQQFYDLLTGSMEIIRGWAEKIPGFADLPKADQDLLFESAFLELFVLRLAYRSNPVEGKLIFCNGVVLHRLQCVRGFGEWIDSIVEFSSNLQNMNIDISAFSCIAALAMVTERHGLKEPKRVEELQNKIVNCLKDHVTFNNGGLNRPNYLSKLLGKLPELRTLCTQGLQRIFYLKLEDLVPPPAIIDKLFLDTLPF

Row | Compound | Activity [2] | IC50 [3] | half-life at 1 h, 10 µM (in vitro) | further results
1 | Cc1cccc(-c2oc(CCC(=O)O)nc2-c2ccccc2)c1 | – | – | – | IC50 [1]: > 50 µM
2 | O=C(O)/C=C/c1nc(-c2ccccc2)c(-c2ccccc2)o1 | Active | 3.8 µM | – | –
3 | CN(C)C(=O)CCc1nc(-c2ccccc2)c(-c2ccccc2Cl)o1 | Active | 29 µM | – | Activity [4]: Active
4 | CN(C)C(=O)/C=C/c1nc(-c2ccccc2)c(-c2ccccc2)o1 | – | – | 30 min | –
5 | CC(C)NCC(O)COc1cccc2ccccc12 (stereo not drawn) [PROPRANOLOL] | – | – | 64 min | –
